We go through 28 molecules from patent US20160318866A1, “SUBSTITUTED BIPIPERIDINYL DERIVATIVES” (Bayer Pharma Aktiengesellschaft, priority 2013, published 2016).

The structures appear in SMILES notation. Where a name gives a salt, the structure may show the parent alone.

In this assay the target is T1, human α2C receptor (Homo sapiens, UniProt P18825).
T1 construct: expressed in transfected cells; host or cells: CHO cells, also recombinantly expressing chimeric G protein Gαqi3 and mitochondrial obelin (mtOb)
T1 sequence (P18825 1-462): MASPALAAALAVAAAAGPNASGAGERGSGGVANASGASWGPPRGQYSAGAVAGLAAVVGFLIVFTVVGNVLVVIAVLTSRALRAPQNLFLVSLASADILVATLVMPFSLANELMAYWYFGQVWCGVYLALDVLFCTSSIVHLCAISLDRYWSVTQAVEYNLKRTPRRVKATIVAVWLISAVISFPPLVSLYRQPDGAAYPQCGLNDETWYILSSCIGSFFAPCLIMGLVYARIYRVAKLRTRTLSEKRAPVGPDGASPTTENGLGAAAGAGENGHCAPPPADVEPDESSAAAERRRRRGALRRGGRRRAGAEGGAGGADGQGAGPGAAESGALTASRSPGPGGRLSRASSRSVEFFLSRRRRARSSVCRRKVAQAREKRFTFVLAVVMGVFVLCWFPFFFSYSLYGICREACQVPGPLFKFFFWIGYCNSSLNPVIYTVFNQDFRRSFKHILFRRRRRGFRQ
The experiment in a line: Antagonism against the adrenoreceptor α2C (luminescence, recombinant CHO cell line). It is filed as cell-based. As to conditions: antagonism against adrenoreceptor α2C; noradrenaline 20 nM; tested up to 10 μM; read-out: IC50. How it is done:
Antagonism against the adrenoreceptor α1A was tested using a recombinant human α1A receptor CHO cell line which additionally also recombinantly expresses mtAeq (mitochondrial aequorin). Antagonism against the adrenoreceptor α2A was tested using a recombinant human α2A-Gα16 receptor fusion protein CHO cell line (PerkinElmer Life Sciences) which additionally also recombinantly expresses mtAeq. Antagonism against the adrenoreceptor α2B was tested using a recombinant human α2B receptor CHO cell line (PerkinElmer Life Sciences) which additionally also recombinantly expresses mtAeq. Antagonism against the adrenoreceptor α2C was tested using a recombinant human α2C receptor CHO cell line which additionally also recombinantly expresses a chimaric G protein (Gαqi3) and mtOb (mitochondrial obelin).
The cells were cultivated at 37° C. and 5% CO2 in Dulbecco's modified Eagle's Medium/NUT mix F12 with L-glutamine which additionally contains 10% (v/v) inactivated foetal calf serum, 1 mM sodium pyruvate, 0.9 mM sodium bicarbonate, 50 U/ml penicillin, 50 μg/ml streptomycin, 2.5 μg/ml amphotericin B and 1 mg/ml Geneticin. The cells were passaged with enzyme-free Hank's-based cell dissociation buffer. All cell culture reagents used are from Invitrogen (Carlsbad, USA).
Luminescence measurements were carried out on white 384-well microtitre plates. 2000 cells/well were plated in a volume of 25 μl and cultivated for one day at 30° C. and 5% CO2 in cell culture medium with coelenterazine (α2A and α2B: 5 μg/ml; α1a/c and α2C: 2.5 μg/ml). Serial dilutions of the test substances (10 μl) were added to the cells. After 5 minutes, noradrenalinee was added to the cells (35 μl; final concentrations: 20 nM (α1a/c and α2C) or 200 nM (α2A and α2B)), and the emitted light was measured for 50 seconds using a CCD (charge-coupled device) camera (Hamamatsu Corporation, Shizuoka, Japan) in a light-tight box. The test substances were tested up to a maximum concentration of 10 μM. The IC50 values were calculated from the appropriate dose-response curves.
What is called IC50 is the point on the concentration scale where inhibition reaches its midpoint. With `CC(C)(O)c1ccc(C(=O)N2CCC(N3CCCC(COC4CCC4)C3)CC2)cc1` (racemic) [Example 116, {3-[(Cyclobutyloxy)methyl]-1,4′-bipiperidin-1′-yl}[4-(2-hydroxypropan-2-yl)phenyl]methanone (racemate)], the IC50 stood at 7 nM.
For `C[C@@H]1CN(C2CCN(C(=O)c3ccc(C(C)(C)C)cc3)CC2)CC[C@@H]1C` (relative stereo) [Example 20, cis-1-[1-(4-tert-Butylbenzoyl)piperidin-4-yl]-3,4-dimethylpiperidine trifluoroacetic acid salt], the IC50 came out at 117 nM.
The value for `CC1CCCN(C2CCN(C(=O)c3ccc(C(C)(C)C)cc3)CC2)C1` (single isomer, unassigned) [Example 6, (4-tert-Butylphenyl)(3-methyl-1,4′-bipiperidin-1′-yl)methanone, (−)-enantiomer] was 91 nM; that for `CCC1CCCN(C2CCN(C(=O)c3ccc(C(C)(C)O)cc3)CC2)C1` (single isomer, unassigned; enantiomer 1) [Example 115, [3-Ethyl-1,4′-bipiperidin-1′-yl][4-(2-hydroxypropan-2-yl)phenyl]methanone (enantiomer 1)] was 22 nM; that for `CC(C)(O)c1ccc(C(=O)N2CCC(N3CCCC(OCC4CC4)C3)CC2)cc1` (single isomer, unassigned; enantiomer 1) [Example 129, [3-(Cyclopropylmethoxy)-1,4′-bipiperidin-1′-yl][4-(2-hydroxypropan-2-yl)phenyl]methanone hydrochloride (enantiomer 1)] was 16 nM.
As to `CC(C)(O)c1ccc(C(=O)N2CCC(N3CCCC(COC4CCC4)C3)CC2)cc1` (single isomer, unassigned; enantiomer 2) [Example 117, {3-[(Cyclobutyloxy)methyl]-1,4′-bipiperidin-1′-yl}[4-(2-hydroxypropan-2-yl)phenyl]methanone (enantiomer 2)], the IC50 was 5 nM.
In the case of `CCOC[C@@H]1CCCN(C2CCN(C(=O)c3ccc(C(C)(C)O)cc3)CC2)C1` (single isomer, unassigned; enantiomer 2) [Example 121, [3-(Ethoxymethyl)-1,4′-bipiperidin-1′-yl][4-(2-hydroxypropan-2-yl)phenyl]methanone (enantiomer 2)] it was 5 nM; in that of `COCC1CCCN(C2CCN(C(=O)c3ccc(C(C)(C)O)cc3)CC2)C1` (single isomer, unassigned; enantiomer 2) [Example 123], 7 nM.
The value for `CCOC(=O)C1CCCN(C2CCN(C(=O)c3ccc(C(C)(C)C)cc3)CC2)C1` (stereo not shown) [Example 1, Ethyl 1′-[(4-tert-butylphenyl)carbonyl]-1,4′-bipiperidine-3-carboxylate] was 38 nM; that for `CCOC(=O)c1ccc(C(=O)N2CCC(N3CCCC(C(=O)OCC)C3)CC2)cc1` (stereo not shown) [Example 2, 3-(Ethoxycarbonyl)-1-{1-[4-(ethoxycarbonyl)benzoyl]piperidin-4-yl}piperidine trifluoroacetic acid salt] was 120 nM; that for `CC1CCCN(C2CCN(C(=O)c3ccc(C(C)(C)C)c(Cl)c3)CC2)C1` (stereo not shown) [Example 3, (3-Chloro-4-tert-butylphenyl)(3-methyl-1,4′-bipiperidin-1′-yl)methanone trifluoroacetic acid salt] was 268 nM.
The value for `CC1CCCN(C2CCN(C(=O)c3ccc(C(C)C)cc3)CC2)C1` (stereo not shown) [Example 4, (4-Isopropylphenyl)(3-methyl-1,4′-bipiperidin-1′-yl)methanone] was 294 nM.
Consider `CC1CCCN(C2CCN(C(=O)c3ccc(C(C)(C)C)cc3)CC2)C1` (stereo not shown) [Example 5, (4-tert-Butylphenyl)(3-methyl-1,4′-bipiperidin-1′-yl)methanone], for which the IC50 is 99 nM.
The value for `CC1CCCN(C2CCN(C(=O)c3ccc(C(C)(C)O)cc3)CC2)C1` (stereo not shown) [Example 7] was 538 nM; that for `CCOC(=O)C1CCCN(C2CCN(C(=O)c3ccc(C(C)(C)O)cc3)CC2)C1` (stereo not shown) [Example 9, Ethyl 1′-[4-(2-hydroxypropan-2-yl)benzoyl]-1,4′-bipiperidine-3-carboxylate] was 44 nM; that for `COc1ccccc1OCc1ccc(C(=O)N2CCC(N3CCCC(C)C3)CC2)cc1` (stereo not shown) [Example 10, {4-[(2-Methoxyphenoxy)methyl]phenyl}[3-methyl-1,4′-bipiperidin-1′-yl]methanone] was 96 nM.
In the case of `Cc1cc(C)n(Cc2ccc(C(=O)N3CCC(N4CCCC(C)C4)CC3)cc2)n1` (stereo not shown) [Example 11, {4-[(3,5-Dimethyl-1H-pyrazol-1-yl)methyl]phenyl}(3-methyl-1,4′-bipiperidin-1′-yl)methanone] it was 167 nM; in that of `CC1CCCN(C2CCN(C(=O)c3ccc(C(C)(C)C)cc3O)CC2)C1` (stereo not shown) [Example 12, (2-Hydroxy-4-tert-butylphenyl)(3-methyl-1,4′-bipiperidin-1′-yl)methanone], 87 nM; in that of `CCOCc1ccc(C(=O)N2CCC(N3CCCC(C)C3)CC2)cc1` (stereo not shown) [Example 13, [4-(Ethoxymethyl)phenyl](3-methyl-1,4′-bipiperidin-1′-yl)methanone], 267 nM.
`CC1CCCN(C2CCN(C(=O)c3ccc(COc4ccccc4)cc3)CC2)C1` (stereo not shown) [Example 14, [4-(Phenoxymethyl)phenyl](3-methyl-1,4′-bipiperidin-1′-yl)methanone]: the IC50 was 115 nM.
In the case of `COc1cc(C(C)(C)C)ccc1C(=O)N1CCC(N2CCCC(C)C2)CC1` (stereo not shown) [Example 15, (4-tert-Butyl-2-methoxyphenyl)(3-methyl-1,4′-bipiperidin-1′-yl)methanone] it was 98 nM; in that of `CC(C)(C)c1ccc(C(=O)N2CCC(N3CCCC(OC(=O)NC4CC4)C3)CC2)cc1` (stereo not shown) [Example 16, 1′-(4-tert-Butylbenzoyl)-1,4′-bipiperidin-3-yl cyclopropylcarbamate], 380 nM; in that of `CC1=C(C)CN(C2CCN(C(=O)c3ccc(C(C)(C)C)cc3)CC2)CC1` [Example 17, 1-[1-(4-tert-Butylbenzoyl)piperidin-4-yl]-4,5-dimethyl-1,2,3,6-tetrahydropyridine], 34 nM.
In the case of `Cc1nnc(C2CCCN(C3CCN(C(=O)c4ccc(C(C)(C)C)cc4)CC3)C2)o1` (stereo not shown) [Example 18, (4-tert-Butylphenyl) [3-(5-methyl-1,3,4-oxadiazol-2-yl)-1,4′-bipiperidin-1′-yl]methanone] it was 129 nM.
The value for `COCC1CCCN(C2CCN(C(=O)c3ccc(C(C)(C)C)cc3)CC2)C1` (stereo not shown) [Example 19, (4-tert-Butylphenyl)[3-(methoxymethyl)-1,4′-bipiperidin-1′-yl]methanone] was 8 nM.
For the molecule `Cc1n[nH]c(C2CCCN(C3CCN(C(=O)c4ccc(C(C)(C)C)cc4)CC3)C2)n1` (stereo not shown) [Example 21, 1-[1-(4-tert-Butylbenzoyl)piperidin-4-yl]-3-(3-methyl-1H-1,2,4-triazol-5-yl)piperidine trifluoroacetic acid salt], the IC50 was found to be 49 nM.
`COC(=O)c1ccc(C(=O)N2CCC(N3CCCC(C)C3)CC2)cc1` (stereo not shown) [Example 22, Methyl 4-[(3-methyl-1,4′-bipiperidin-1′-yl)carbonyl]benzoate]: the IC50 is 940 nM.
As to `CC1CCCN(C2CCN(C(=O)c3ccc(CC4(C)COC4)cc3)CC2)C1` (stereo not shown) [Example 23, (3-Methyl-1,4′-bipiperidin-1′-yl){4-[(3-methyloxetan-3-yl)methyl]phenyl}methanone], the IC50 worked out at 136 nM.
